These results are taken from US11541132B2, “Radiolabeled compounds” (Hoffmann-La Roche Inc., priority 2017, dated 2023).

Molecules are shown by their SMILES.

Assay [1] deals with T1, native aSyn aggregates in A30P transgenic mouse brain sections (Homo sapiens, UniProt P37840, A30P).
T1 construct: from tissue; host or cells: brain sections (midbrain and pons as ROI) of A30P transgenic mice, line B6.D2-Tg(Thy1-SNCA*30P)31Pjk
In words: aSyn in vitro displacement assay ([3H]Example-3 autoradiography). It counts as binding, mutant human aSyn gene). The conditions noted are these: 1 μM compound; 3 nM [3H]Example-3; A30P transgenic mouse brain sections; read-out: PCT_INHIB A30P @ 1 μM (% displacement of [3H]Example-3). In general terms: In a radioligand displacement assay an active substance lowers the binding of a labelled ligand.

Assay [2] addresses T2, native Aβ aggregates in human AD brain tissue sections (Homo sapiens, UniProt P05067).
T2 construct: native Aβ aggregates in human AD brain tissue samples; from tissue; host or cells: human AD brain tissue sections
In words: Aβ in vitro displacement assay (selectivity counterscreen, [3H]Example 3 autoradiography). Particulars: 1 μM compound; 3 nM [3H]Example 3; human AD brain sections; read-out: sel. counterscreen PCT_INHIB AD @ 1 μM (% displacement of [3H]Example 3). In kind it is binding. (A counterscreen serves to expose hits that act by an unwanted route or on another target.)

T2 sequence (P05067 672-713 limits assumed): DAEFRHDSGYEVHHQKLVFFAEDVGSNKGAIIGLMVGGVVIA

In the case of `COc1ccc(C(=O)Nc2ccc(N3CCN(c4cc(C)c(C#N)cn4)CC3)cc2)cc1` [Example 151, N-(4-(4-(5-Cyano-4-methylpyridin-2-yl)piperazin-1-yl)phenyl)-4-methoxybenzamide], the inhibition at 1 µM in assay [1] was found to be 93%; in assay [2] it was 91%.

Take `COc1ccc(C(=O)Nc2ccc(N3C[C@H]4CN(c5ccccn5)C[C@@H]4C3)cc2)cc1` [Example 132, 4-Methoxy-N-(4-((3aS,6aS)-5-(pyridin-2-yl)hexahydropyrrolo[3,4-c]pyrrol-2(1H)-yl)phenyl)benzamide]: the inhibition at 1 µM in assay [1] worked out at 82%; in assay [2] it was 20%.

Turning to `COc1ccc(C(=O)Nc2ccc(N3CCN(c4ccc(C#N)cc4)CC3)cc2)cc1OC` [Example 169, N-(4-(4-(4-Cyanophenyl)piperazin-1-yl)phenyl)-3,4-dimethoxybenzamide], the inhibition at 1 µM is 83% in assay [1] and 82% in assay [2].

`COc1ccc(C(=O)Nc2ccc(N3CCN(c4ccccn4)CC3)cn2)cc1` [Example 43, 4-Methoxy-N-(5-(4-(pyridin-2-yl)piperazin-1-yl)pyridin-2-yl)benzamide]: the inhibition at 1 µM was 84% in assay [1] and 99% in assay [2].

Consider `COc1ccc(C(=O)Nc2ccc(N3CCN(c4ccc(C#N)cc4F)CC3)cc2)cc1` [Example 145, N-(4-(4-(4-Cyano-2-fluorophenyl)piperazin-1-yl)phenyl)-4-methoxybenzamide], for which the inhibition at 1 µM in assay [1] was found to be 98%; in assay [2], 97%.

Turning to `COc1ccc(C(=O)Nc2ccc(N3CCN(c4ccccn4)CC3)cn2)nc1` [Example 76, 5-Methoxy-N-(5-(4-(pyridin-2-yl)piperazin-1-yl)pyridin-2-yl)picolinamide], the inhibition at 1 µM is 94% in assay [1] and 91% in assay [2].

On to `O=C(Nc1ccc(N2CCN(c3ccccn3)CC2)cc1)c1ccc(OCCOCCO)cc1` [Example 137, 4-(2-(2-Hydroxyethoxy)ethoxy)-N-(4-(4-(pyridin-2-yl)piperazin-1-yl)phenyl)benzamide], for which the inhibition at 1 µM came out at 80% in assay [1] and 92% in assay [2].

For `O=C(Nc1ccc(N2CCN(c3ccccn3)CC2)cc1)c1ccn2ccnc2c1` [Example 16, N-(4-(4-(Pyridin-2-yl)piperazin-1-yl)phenyl)imidazo[1,2-a]pyridine-7-carboxamide], the inhibition at 1 µM was 87% in assay [1] and 97% in assay [2].

Consider `CN1CCN(c2ccc(C(=O)Nc3ccc(N4CCN(c5ccccn5)CC4)cc3)cc2)CC1` [Example 6, 4-(4-Methylpiperazin-1-yl)-N-(4-(4-(pyridin-2-yl)piperazin-1-yl)phenyl)benzamide], for which the inhibition at 1 µM in assay [1] stood at 83%; in assay [2], 95%.

With `COc1ccc(C(=O)Nc2ccc(N3CCN(c4ccc(C#N)cc4OC)CC3)cc2)cc1` [Example 139, N-(4-(4-(4-Cyano-2-methoxyphenyl)piperazin-1-yl)phenyl)-4-methoxybenzamide], the inhibition at 1 µM in assay [1] and in assay [2] was 94% throughout.

Regarding `Cc1ccc(C(=O)Nc2cnc(N3CCN(c4ccccn4)CC3)cn2)cc1` [Example 89, 4-Methyl-N-(5-(4-(pyridin-2-yl)piperazin-1-yl)pyrazin-2-yl)benzamide], the inhibition at 1 µM in assay [1] was 85%; in assay [2], 88%.

Take `COc1ccc(C(=O)Nc2ccc(N3CCN(c4cc(C)ccn4)CC3)cc2)cc1` [Example 102, 4-Methoxy-N-[4-[4-(4-methyl-2-pyridyl)piperazin-1-yl]phenyl]benzamide]: the inhibition at 1 µM in assay [1] is 89%; in assay [2], 88%.

Turning to `COc1ccc(C(=O)Nc2ccc(N3CCN(c4ccccn4)CC3)cc2)c(C)c1` [Example 11, 4-Methoxy-2-methyl-N-(4-(4-(pyridin-2-yl)piperazin-1-yl)phenyl)benzamide], the values for the inhibition at 1 µM in assay [1] and in assay [2] were 87% and 86%, respectively.

Turning to `COc1ccc(C(=O)Nc2ccc(N3CCN(c4ncncn4)CC3)cc2)cc1` [Example 55, 4-Methoxy-N-{4-[4-(1,3,5-triazin-2-yl)piperazin-1-yl]phenyl}benzamide], the results for the inhibition at 1 µM in assay [1] and in assay [2] were 81% and 95%, respectively.

For the compound `COc1ccc(C(=O)Nc2ccc(N3CCN(c4ccnc(OC)c4)CC3)cc2)cc1` [Example 155, 4-Methoxy-N-(4-(4-(2-methoxypyridin-4-yl)piperazin-1-yl)phenyl)benzamide], the results for the inhibition at 1 µM in assay [1] and in assay [2] were 85% and 97%, respectively.

For the compound `COc1ccc(C(=O)Nc2cnc(N3CCN(c4ccc(C#N)cn4)CC3)nc2)cc1` [Example 98, N-(2-(4-(5-Cyanopyridin-2-yl)piperazin-1-yl)pyrimidin-5-yl)-4-methoxybenzamide], the inhibition at 1 µM in assay [1] and in assay [2] was 86% in each case.

Regarding `COc1ccc(C(=O)Nc2ccc(N3CCN(c4ccc(C#N)cn4)CC3)cc2)cc1` [Example 50, N-(4-(4-(5-Cyanopyridin-2-yl)piperazin-1-yl)phenyl)-4-methoxybenzamide], the inhibition at 1 µM worked out at 97% in assay [1] and 86% in assay [2].

In the case of `COc1ccc(C(=O)Nc2ccc(N3CCN(c4ccc(N(C)C)cn4)CC3)cc2)cc1` [Example 142, N-(4-(4-(5-(Dimethylamino)pyridin-2-yl)piperazin-1-yl)phenyl)-4-methoxybenzamide], the inhibition at 1 µM in assay [1] and in assay [2] was 91% each time.

Consider `COc1ccc(C(=O)Nc2ccc(N3CCN(c4cc(OC)ccn4)CC3)cc2)cc1` [Example 82, 4-Methoxy-N-[4-[4-(4-methoxy-2-pyridyl)piperazin-1-yl]phenyl]benzamide], for which the values for the inhibition at 1 µM in assay [1] and in assay [2] were 91% and 106%, respectively.

For the compound `COc1ccc(C(=O)Nc2ccc(N3CCN(c4ccccn4)CC3)cn2)c(C)c1` [Example 80, 4-Methoxy-2-methyl-N-[5-(4-pyridin-2-ylpiperazin-1-yl)pyridin-2-yl]benzamide], the inhibition at 1 µM in assay [1] was determined as 90%; in assay [2] it was 94%.

As for `COc1ccc(C(=O)Nc2ccc(N3CCN(c4ccc(C#N)c(F)c4)CC3)cc2)cc1` [Example 150, N-(4-(4-(4-Cyano-3-fluorophenyl)piperazin-1-yl)phenyl)-4-methoxybenzamide], the inhibition at 1 µM in assay [1] was 98%; in assay [2], 94%.

Regarding `COc1ccc(C(=O)Nc2ccc(N3CCN(c4cccnc4)CC3)cc2)cc1` [Example 38, 4-Methoxy-N-(4-(4-(pyridin-3-yl)piperazin-1-yl)phenyl)benzamide], the values for the inhibition at 1 µM in assay [1] and in assay [2] were 96% and 93%, respectively.

On to `COc1ccc(C(=O)Nc2ccc(N3CCN(c4cccc(C#N)n4)CC3)cc2)cc1` [Example 100, N-[4-[4-(6-Cyano-2-pyridyl)piperazin-1-yl]phenyl]-4-methoxy-benzamide], for which the inhibition at 1 µM was found to be 86% in assay [1] and 85% in assay [2].

On to `COc1ccc(C(=O)Nc2ccc(N3CCN(c4ccc(C)cc4)CC3)cc2)cc1` [Example 109, 4-Methoxy-N-[4-[4-(p-tolyl)piperazin-1-yl]phenyl]benzamide], for which the inhibition at 1 µM in assay [1] was found to be 96%; in assay [2] it was 97%.

On to `COc1ccc(C(=O)Nc2ccc(N3CCN(c4ccc(C#N)c(C)c4)CC3)cc2)cc1` [Example 153, N-(4-(4-(4-Cyano-3-methylphenyl)piperazin-1-yl)phenyl)-4-methoxybenzamide], for which the results for the inhibition at 1 µM in assay [1] and in assay [2] were 92% and 87%, respectively.

On to `COc1ccc(C(=O)Nc2ccc(N3CCN(c4ccccn4)CC3)cc2)nc1` [Example 78, 5-Methoxy-N-(4-(4-(pyridin-2-yl)piperazin-1-yl)phenyl)picolinamide], for which the inhibition at 1 µM in assay [1] came to 98%; in assay [2] it was 94%.

For `COc1ccc(C(=O)Nc2cnc(N3CCN(c4ccccn4)CC3)nc2)nc1` [Example 79, 5-Methoxy-N-(2-(4-(pyridin-2-yl)piperazin-1-yl)pyrimidin-5-yl)picolinamide], the inhibition at 1 µM came to 95% in assay [1] and 93% in assay [2].

With `Cc1ccc(C(=O)Nc2ccc(N3CCN(c4cccnc4)CC3)cc2)cc1` [Example 37, 4-Methyl-N-(4-(4-(pyridin-3-yl)piperazin-1-yl)phenyl)benzamide], the inhibition at 1 µM in assay [1] was determined as 94%; in assay [2], 97%.

With `COc1ccc(C(=O)Nc2ccc(N3CCN(c4ccc(C#N)cn4)CC3)cc2)c(F)c1` [Example 115, N-[4-[4-(5-Cyano-2-pyridyl)piperazin-1-yl]phenyl]-2-fluoro-4-methoxy-benzamide], the inhibition at 1 µM in assay [1] amounted to 87%; in assay [2], 90%.

In the case of `COc1ccc(C(=O)Nc2ccc(N3CCN(c4cccs4)CC3)cc2)cc1` [Example 66, 4-Methoxy-N-{4-[4-(thiophen-2-yl)piperazin-1-yl]phenyl}benzamide], the values for the inhibition at 1 µM in assay [1] and in assay [2] were 104% and 103%, respectively.

Regarding `Cn1cc(C(=O)Nc2ccc(N3CCN(c4ccc(C#N)cc4)CC3)cc2)cn1` [Example 158, N-(4-(4-(4-Cyanophenyl)piperazin-1-yl)phenyl)-1-methyl-1H-pyrazole-4-carboxamide], the inhibition at 1 µM worked out at 83% in assay [1] and 87% in assay [2].

Consider `COc1ccc(C(=O)Nc2ccc(N3CCN(c4ccc(C#N)cn4)CC3)c(C)c2)cc1` [Example 113, N-[4-[4-(5-Cyano-2-pyridyl)piperazin-1-yl]-3-methyl-phenyl]-4-methoxy-benzamide], for which the inhibition at 1 µM was found to be 87% in assay [1] and 79% in assay [2].
